# Results reported in patent US20240197726A1, “NOVEL TETRAHYDROISOQUINOLINE ALKALOID COMPOUND CONTAINING MACROCYCLE” (THE UNIVERSITY OF TOKYO, priority 2021, published 2024).
# Read-outs that look alike come from different tables or passages of the source.
# How the values were obtained:
# Assay type in all cases: cell-based
# [1] = tested on: BSY-1 breast cancer cells; assay: antitumor activity, sulforhodamine B cell growth assay, BSY-1
# Description: (§1) The THIQ compound containing a macrocyclic structure of the present invention was administered to various cancer cell lines, and the antitumor activity (Go value) was observed. Specifically, verification was performed according to the literature (Yamori, T.; Matsunaga, A.; Sato, S.; Yamazaki, K.; Komi, A.; Ishizu, K. et al. Cancer Res. 1999, 59, 4042) by the following procedure.
# (§2) Cells were plated at an appropriate density in a 96-well plate in RPMI 1640 together with 5% fetal bovine serum, and adhered overnight. The cells were exposed to a drug for 48 hours. Then, according to the sulforhodamine B assay described by Skehan et al (Skehan P., Storeng R., Scudiero D., Monks A., McMahon J., Vistica D., Warren J. T., Bokesch H., Kenney S., Boyd M. R. J Natl. Cancer Inst, 1990, 82, 1107-1112), the cell growth rate was measured. The absorbance of the control well (C) and the test well (T) was measured at 525 nm. In addition, the time at which the drug was added was set as time 0, and the absorbance for the test well (T0) was measured. Using these measured values, the cell growth inhibitory effect (% growth=PG) was calculated by the following formula at each concentration of the drug.
# (§3) (T<T0): PG=100×[(T−T0)/T]
# (§4) The PG values determined above for each cell line were plotted against the concentration (logarithm) on a semi-logarithmic graph, and summarized for each visceral cancer. Concentrations at which the dose-response curve of each cell line crossed the horizontal line of PG=50%, 0%, or −50% were calculated. These concentrations were defined as Log GI50, Log TGI, and Log LC50. Actually, using two data points of the drug concentration before and after crossing each horizontal line, the drug concentration (logarithmic value) at the intersection of the straight line connecting the two points and the horizontal line for each PG was calculated.
# [2] = tested on: MCF-7 breast cancer cells; assay: antitumor activity, sulforhodamine B cell growth assay, MCF-7
# Description: as §1, §2, §3, §4
# [3] = tested on: SF-539 central nervous system cancer cells; assay: antitumor activity, sulforhodamine B cell growth assay, SF-539
# Description: as §1, §2, §3, §4
# [4] = tested on: SNB-75 central nervous system cancer cells; assay: antitumor activity, sulforhodamine B cell growth assay, SNB-75
# Description: as §1, §2, §3, §4
# [5] = tested on: KM-12 colorectal cancer cells; assay: antitumor activity, sulforhodamine B cell growth assay, KM-12
# Description: as §1, §2, §3, §4
# [6] = tested on: HCT-116 colorectal cancer cells; assay: antitumor activity, sulforhodamine B cell growth assay, HCT-116
# Description: as §1, §2, §3, §4
# [7] = tested on: NCI-H226 lung cancer cells; assay: antitumor activity, sulforhodamine B cell growth assay, NCI-H226
# Description: as §1, §2, §3, §4
# A549 lung cancer cells = assay: antitumor activity, sulforhodamine B cell growth assay, A549
# Description: as §1, §2, §3, §4
# DMS114 lung cancer cells = assay: antitumor activity, sulforhodamine B cell growth assay, DMS114
# Description: as §1, §2, §3, §4
# OVCAR-3 cancer cells = assay: antitumor activity, sulforhodamine B cell growth assay, OVCAR-3
# Description: as §1, §2, §3, §4
# OVCAR-8 cancer cells = assay: antitumor activity, sulforhodamine B cell growth assay, OVCAR-8
# Description: as §1, §2, §3, §4
# [8] = tested on: St-4 gastric cancer cells; assay: antitumor activity, sulforhodamine B cell growth assay, St-4
# Description: as §1, §2, §3, §4
# [9] = tested on: MKN1 gastric cancer cells; assay: antitumor activity, sulforhodamine B cell growth assay, MKN1
# Description: as §1, §2, §3, §4
# [10] = tested on: MKN-B gastric cancer cells; assay: antitumor activity, sulforhodamine B cell growth assay, MKN-B
# Description: as §1, §2, §3, §4
# [11] = tested on: MKN-A gastric cancer cells; assay: antitumor activity, sulforhodamine B cell growth assay, MKN-A
# Description: as §1, §2, §3, §4
# [12] = tested on: MKN45 gastric cancer cells; assay: antitumor activity, sulforhodamine B cell growth assay, MKN45
# Description: as §1, §2, §3, §4
# [13] = tested on: MKN74 gastric cancer cells; assay: antitumor activity, sulforhodamine B cell growth assay, MKN74
# Description: as §1, §2, §3, §4
# [14] = tested on: PC-3 prostate cancer cells; assay: antitumor activity, sulforhodamine B cell growth assay, PC-3
# Description: as §1, §2, §3, §4
# [15] = BSY-1, drug exposure 48 hours, read-out: GI50 value: 50% growth inhibitory concentration
# [16] = MCF-7, drug exposure 48 hours, read-out: GI50 value: 50% growth inhibitory concentration
# [17] = SF-539, drug exposure 48 hours, read-out: GI50 value: 50% growth inhibitory concentration
# [18] = SNB-75, drug exposure 48 hours, read-out: GI50 value: 50% growth inhibitory concentration
# [19] = KM-12, drug exposure 48 hours, read-out: GI50 value: 50% growth inhibitory concentration
# [20] = HCT-116, drug exposure 48 hours, read-out: GI50 value: 50% growth inhibitory concentration
# [21] = NCI-H226, drug exposure 48 hours, read-out: GI50 value: 50% growth inhibitory concentration
# [22] = A549, drug exposure 48 hours, read-out: GI50 value: 50% growth inhibitory concentration
# [23] = OVCAR-3, drug exposure 48 hours, read-out: GI50 value: 50% growth inhibitory concentration
# [24] = OVCAR-8, drug exposure 48 hours, read-out: GI50 value: 50% growth inhibitory concentration
# [25] = St-4 (SI-4 in Tables 2-11), drug exposure 48 hours, read-out: GI50 value: 50% growth inhibitory concentration
# [26] = MKN1, drug exposure 48 hours, read-out: GI50 value: 50% growth inhibitory concentration
# [27] = MKN-B, drug exposure 48 hours, read-out: GI50 value: 50% growth inhibitory concentration
# [28] = MKN-A, drug exposure 48 hours, read-out: GI50 value: 50% growth inhibitory concentration
# [29] = MKN45, drug exposure 48 hours, read-out: GI50 value: 50% growth inhibitory concentration
# [30] = MKN74, drug exposure 48 hours, read-out: GI50 value: 50% growth inhibitory concentration
# [31] = PC-3, drug exposure 48 hours, read-out: GI50 value: 50% growth inhibitory concentration
Structure (SMILES),"GI50 [1, 15] [nM]","GI50 [2, 16] [nM]","GI50 [3, 17] [nM]","GI50 [4, 18] [nM]","GI50 [5, 19] [nM]","GI50 [6, 20] [nM]","GI50 [7, 21] [nM]",GI50 (A549 lung cancer cells; [22]) [nM],GI50 (OVCAR-3 cancer cells; [23]) [nM],GI50 (OVCAR-8 cancer cells; [24]) [nM],"GI50 [8, 25] [nM]","GI50 [9, 26] [nM]","GI50 [10, 27] [nM]","GI50 [11, 28] [nM]","GI50 [12, 29] [nM]","GI50 [13, 30] [nM]","GI50 [14, 31] [nM]",further results
C#CCN1C/C=C/COc2c(C)c3c(c4c2C[C@H]2[C@H]5c6c(cc(C)c(OC)c6O)C[C@@H]([C@H](C#N)N2C4CNC(=O)[C@@H]1C)N5C)OCO3 [Compound 44],,,,,,,,,,,,,,,,,,"GI50 ([1]; BSY-1 breast cancer cells, read-out: antitumor activity GI50 value: 50% growth inhibitory concentration): < 10 nM; GI50 ([2]; Homo sapiens, MCF7, MCF-7 breast cancer cells, read-out: antitumor activity GI50 value: 50% growth inhibitory concentration): < 10 nM; GI50 ([3]; Homo sapiens, SF-539 central nervous system cancer cells, read-out: antitumor activity GI50 value: 50% growth inhibitory concentration): < 10 nM; GI50 ([4]; Homo sapiens, SNB-75 central nervous system cancer cells, read-out: antitumor activity GI50 value: 50% growth inhibitory concentration): < 10 nM; GI50 ([5]; Homo sapiens, KM12, KM-12 colorectal cancer cells, read-out: antitumor activity GI50 value: 50% growth inhibitory concentration): < 10 nM; GI50 ([6]; Homo sapiens, HCT-116 colorectal cancer cells, read-out: antitumor activity GI50 value: 50% growth inhibitory concentration): < 10 nM; GI50 ([7]; Homo sapiens, NCI-H226, NCl-H226 lung cancer cells, read-out: antitumor activity GI50 value: 50% growth inhibitory concentration): < 10 nM; GI50 (A549 lung cancer cells; Homo sapiens, A549 lung cancer cells, read-out: antitumor activity GI50 value: 50% growth inhibitory concentration): < 10 nM; GI50 (DMS114 lung cancer cells; Homo sapiens, DMS-114, DMS114 lung cancer cells, read-out: antitumor activity GI50 value: 50% growth inhibitory concentration): < 10 nM; GI50 (OVCAR-3 cancer cells; Homo sapiens, OVCAR-3 cervical cancer cells, read-out: antitumor activity GI50 value: 50% growth inhibitory concentration): < 10 nM; GI50 (OVCAR-8 cancer cells; Homo sapiens, OVCAR-8 cervical cancer cells, read-out: antitumor activity GI50 value: 50% growth inhibitory concentration): < 10 nM; GI50 ([8]; SI-4 gastric cancer cells, read-out: antitumor activity GI50 value: 50% growth inhibitory concentration): < 10 nM; GI50 ([9]; Homo sapiens, MKN-1, MKN1 gastric cancer cells, read-out: antitumor activity GI50 value: 50% growth inhibitory concentration): < 10 nM; GI50 ([10]; MKN-B gastric cancer cells, read-out: antitumor activity GI50 value: 50% growth inhibitory concentration): < 10 nM; GI50 ([11]; MKN-A gastric cancer cells, read-out: antitumor activity GI50 value: 50% growth inhibitory concentration): < 10 nM; GI50 ([12]; Homo sapiens, MKN-45, MKN45 gastric cancer cells, read-out: antitumor activity GI50 value: 50% growth inhibitory concentration): < 10 nM; GI50 ([13]; Homo sapiens, MKN-74, MKN74 gastric cancer cells, read-out: antitumor activity GI50 value: 50% growth inhibitory concentration): < 10 nM; GI50 ([14]; PC-3 prostate cancer cells, read-out: antitumor activity GI50 value: 50% growth inhibitory concentration): < 10 nM"
"COC1=C(C)C(=O)C2=C(C1=O)[C@H](CNC(=O)[C@H](C)N)N1C(C2)[C@H]2c3c(cc(C)c(OC)c3O)C[C@@H]([C@@H]1C#N)N2C (stereo partly shown) [Cyanosafracin B, reference compound]",34,52,180,150,530,290,310,1600,130,290,430,52,170,250,300,310,290,"GI50 (DMS114 lung cancer cells; DMS114, drug exposure 48 hours, listed as drawing 116, read-out: GI50 value: 50% growth inhibitory concentration): 35 nM; GI50 (DMS114 lung cancer cells; DMS114, drug exposure 48 hours, listed as drawing 148, read-out: GI50 value: 50% growth inhibitory concentration): 38 nM"
COc1c(C)cc2c(c1O)[C@@H]1[C@@H]3Cc4c5c(C)c6c(c4C(CNC(=O)[C@H](C)N(C)CC#CCO5)N3[C@@H](C#N)[C@H](C2)N1C)OCO6 [Compound 29],0.6,,,,,,,,,,3.8,,3,3.5,,,3,"GI50 ([2]; Homo sapiens, MCF7, MCF-7, drug exposure 48 hours, read-out: GI50 value: 50% growth inhibitory concentration): 0.67 nM; GI50 ([3]; Homo sapiens, SF-539, drug exposure 48 hours, read-out: GI50 value: 50% growth inhibitory concentration): 1.3 nM; GI50 ([4]; Homo sapiens, SNB-75, drug exposure 48 hours, read-out: GI50 value: 50% growth inhibitory concentration): 1.3 nM; GI50 ([5]; Homo sapiens, KM12, KM-12, drug exposure 48 hours, read-out: GI50 value: 50% growth inhibitory concentration): 3.1 nM; GI50 ([6]; Homo sapiens, HCT-116, drug exposure 48 hours, read-out: GI50 value: 50% growth inhibitory concentration): 2.4 nM; GI50 ([7]; Homo sapiens, NCI-H226, drug exposure 48 hours, read-out: GI50 value: 50% growth inhibitory concentration): 2.5 nM; GI50 (A549 lung cancer cells; Homo sapiens, A549, drug exposure 48 hours, read-out: GI50 value: 50% growth inhibitory concentration): 3.4 nM; GI50 (DMS114 lung cancer cells; Homo sapiens, DMS-114, DMS114, drug exposure 48 hours, read-out: GI50 value: 50% growth inhibitory concentration): 0.89 nM; GI50 (OVCAR-3 cancer cells; Homo sapiens, OVCAR-3, drug exposure 48 hours, read-out: GI50 value: 50% growth inhibitory concentration): 2.6 nM; GI50 (OVCAR-8 cancer cells; Homo sapiens, OVCAR-8, drug exposure 48 hours, read-out: GI50 value: 50% growth inhibitory concentration): 2.6 nM; GI50 ([9]; Homo sapiens, MKN-1, MKN1, drug exposure 48 hours, read-out: GI50 value: 50% growth inhibitory concentration): 2.3 nM; GI50 ([12]; Homo sapiens, MKN-45, MKN45, drug exposure 48 hours, read-out: GI50 value: 50% growth inhibitory concentration): 1.3 nM; GI50 ([13]; Homo sapiens, MKN-74, MKN74, drug exposure 48 hours, read-out: GI50 value: 50% growth inhibitory concentration): 3.7 nM"
C=C1/C=C/CN[C@@H](C)C(=O)NCC2c3c(c(c(C)c4c3OCO4)OC1)C[C@H]1[C@H]3c4c(cc(C)c(OC)c4O)C[C@@H]([C@H](C#N)N21)N3C [Compound 33],18,26,46,96,110,87,260,360,70,180,270,68,220,330,41,260,190,"GI50 (DMS114 lung cancer cells; DMS114, drug exposure 48 hours, read-out: GI50 value: 50% growth inhibitory concentration): 31 nM"
